Each structure is given as a SMILES string.

SOS1/KRAS WT, sequence (Q07889 564-1049): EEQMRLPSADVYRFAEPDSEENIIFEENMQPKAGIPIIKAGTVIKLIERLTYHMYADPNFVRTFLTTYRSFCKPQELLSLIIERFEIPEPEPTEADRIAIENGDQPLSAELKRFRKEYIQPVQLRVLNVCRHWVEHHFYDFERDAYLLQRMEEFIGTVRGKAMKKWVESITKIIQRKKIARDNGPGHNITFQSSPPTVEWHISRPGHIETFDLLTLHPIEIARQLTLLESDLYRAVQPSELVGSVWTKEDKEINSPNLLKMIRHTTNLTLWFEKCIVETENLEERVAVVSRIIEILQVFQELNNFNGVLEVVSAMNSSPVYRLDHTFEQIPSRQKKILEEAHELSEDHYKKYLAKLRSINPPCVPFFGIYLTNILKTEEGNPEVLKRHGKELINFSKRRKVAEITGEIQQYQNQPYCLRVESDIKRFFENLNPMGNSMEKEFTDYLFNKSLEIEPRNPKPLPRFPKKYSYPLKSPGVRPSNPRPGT

For one assay, the target named is SOS1/KRAS WT (Homo sapiens (Human), UniProt Q07889). The assay can be described thus: SOS1/KRAS WT HTRF binding assay (FRET-based protein-protein interaction). Conditions: inhibition of His6-SOS1 (aa564-1049, 40 nM) binding to GST-KRAS-WT (aa1-188, 40 nM); at least two independent replicates. In short, it runs like this:
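GST-KRAS WT (aa1-188, 40 nM) and His6-SOS1 exchange domain (aa564-1049, 40 nM) were incubated 60 min at room temperature with compound dose response in HEPES pH7.3 buffer with 10 mM EDTA and 100 mM KF. Anti-GST-Eu(K)/anti-6His-XL665 HTRF was read after 4 hr, and IC50 came from a four-parameter fit (≥2 replicates).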
In general terms: In TR-FRET formats the signal depends on donor and acceptor labels being close together.
Consider `COCC1(C)C(=O)N(C)c2cc3c(N[C@H](C)c4cccc(C(F)(F)C(C)(C)O)c4)nnc(C)c3cc21` (stereo partly drawn) [Compound 91, D8-[[(1R)-1-[3-(1,1-difluoro-2-hydroxy-2-methyl-propyl)phenyl]ethyl]amino]-3-(methoxymethyl)-1,3,5-trimethyl-pyrrolo[3,2-g]phthalazin-2-one], for which the “SOS1/KRAS WT HTRF Binding assay pIC50” value amounted to 7.75.

Still in this assay, the particulars now being: inhibition of His6-SOS1 (aa564-1049, 40 nM) binding to GST-KRAS-WT (aa1-188, 40 nM); at least two independent replicates; read-out: SOS1/KRAS WT HTRF Binding assay pIC50 (converted).
As to `Cc1nnc(N[C@H](C)c2cccc(C(F)(F)C(C)(C)O)c2)c2cc3c(cc12)n(C)c(=O)n3C1CC1` [Compound 67, 3-cyclopropyl-1,8-dimethyl-5-[[(1R)-1-[3-(1,1-difluoro-2-hydroxy-2-methyl-propyl)phenyl]ethyl]amino]imidazo [4,5-g]phthalazin-2-one], the IC50 was 7.41 nM.
Same read-out and setting: under `Cc1c([C@@H](C)Nc2nnc(C)c3cc4c(cc23)n(C2CC2)c(=O)n4C)cccc1C(F)(F)CO` [Compound 68, 3-cyclopropyl-1,8-dimethyl-5-[[(1R)-1-[3-(1,1-difluoro-2-hydroxy-ethyl)-2-methyl-phenyl]ethyl]amino]imidazo[4,5-g]phthalazin-2-one] stands 9.55 nM.
Still for that read-out and setting: under `Cc1c([C@@H](C)Nc2nnc(C)c3cc4c(cc23)N(C)C(=O)C4(C)C)cccc1C(F)(F)CO` [Compound 69, 1,3,3,5-tetramethyl-8-[[(1R)-1-[3-(1,1-difluoro-2-hydroxy-ethyl)-2-methyl-phenyl]ethyl]amino]pyrrolo[2,3-g]phthalazin-2-one] stands 9.12 nM; under `Cc1nnc(N[C@H](C)c2cccc(C(F)(F)CO)c2)c2cc3c(cc12)n(C)c(=O)n3C1CC1` [Compound 70, 3-cyclopropyl-1,8-dimethyl-5-[[(1R)-1-[3-(1,1-difluoro-2-hydroxy-ethyl)phenyl]ethyl]amino]imidazo [4,5-g]phthalazin-2-one], 11.5 nM; under `Cc1c([C@@H](C)Nc2nnc(C)c3cc4c(cc23)N(C)C(=O)C42CCOCC2)cccc1C(F)(F)CO` [Compound 72, 1,5-dimethyl-8-[[(1R)-1-[3-(1,1-difluoro-2-hydroxy-ethyl)-2-methyl-phenyl]ethyl]amino]spiro[pyrrolo [2,3-g]phthalazine-3,4′-tetrahydropyran]-2-one], 9.77 nM.
On the same count and under the same terms, under `Cc1nnc(N[C@H](C)c2cccc(C(F)(F)C(C)(C)O)c2F)c2cc3c(cc12)C1(CCOCC1)C(=O)N3C` [Compound 73, 1,5-dimethyl-8-[[(1R)-1-[3-(1,1-difluoro-2-hydroxy-2-methyl-propyl)-2-fluoro-phenyl]ethyl]amino]spiro[pyrrolo [2,3-g]phthalazine-3,4′-tetrahydropyran]-2-one] stands 6.92 nM; under `Cc1nnc(N[C@H](C)c2cccc(C(F)(F)F)n2)c2cc3c(cc12)n(C)c(=O)n3C` [Compound 74, 1,3,8-trimethyl-5-[[(1R)-1-[6-(trifluoromethyl)-2-pyridyl]ethyl]amino]imidazo[4,5-g]phthalazin-2-one], 912 nM.
On to `COC1(C)C(=O)N(C)c2cc3c(N[C@H](C)c4cccc(C(F)(F)C(C)(C)O)c4F)nnc(C)c3cc21` (stereo partly drawn) [Compound 75, 3-methoxy-1,3,5-trimethyl-8-[[(1R)-1-[3-(1,1-difluoro-2-hydroxy-2-methyl-propyl)-2-fluoro-phenyl]ethyl]amino]pyrrolo[2,3-g]phthalazin-2-one], for which the IC50 is 8.71 nM.
The same measure, in the same setting: the result for `Cc1c([C@@H](C)Nc2nnc(C)c3cc4c(cc23)n(C2(C)CC2)c(=O)n4C)cccc1C(F)(F)CO` [Compound 76, 1,8-dimethyl-3-(1-methylcyclopropyl)-5-[[(1R)-1-[3-(1,1-difluoro-2-hydroxy-ethyl)-2-methyl-phenyl]ethyl]amino]imidazo[4,5-g]phthalazin-2-one] reads 6.03 nM; that for `Cc1nnc(N[C@H](C)c2cccc(C(F)(F)C(C)(C)O)c2)c2cc3c(cc12)C(C)(C)C(=O)N3C` [Compound 77, 1,3,3,5-tetramethyl-8-[[(1R)-1-[3-(1,1-difluoro-2-hydroxy-2-methyl-propyl)phenyl]ethyl]amino]pyrrolo [2,3-g]phthalazin-2-one], 11.2 nM; that for `Cc1nnc(N[C@H](C)c2cccc(C(F)(F)CO)c2)c2cc3c(cc12)C(C)(C)C(=O)N3C` [Compound 78, 1,3,3,5-tetramethyl-8-[[(1R)-1-[3-(1,1-difluoro-2-hydroxy-ethyl)phenyl]ethyl]amino]pyrrolo [2,3-g]phthalazin-2-one], 9.55 nM.
On the same count and under the same terms, under `Cc1c([C@@H](C)Nc2nnc(C)c3cc4c(cc23)N(C(C)C)C(=O)C4(C)C)cccc1C(F)(F)CO` [Compound 79, 1-isopropyl-3,3,5-trimethyl-8-[[(1R)-1-[3-(1,1-difluoro-2-hydroxy-ethyl)-2-methyl-phenyl]ethyl]amino]pyrrolo[2,3-g]phthalazin-2-one] stands 6.76 nM; under `Cc1nnc(N[C@H](C)c2cccc(C(F)(F)CO)c2)c2cc3c(cc12)n(C)c(=O)n3C(C)(C)C` [Compound 80, 3-tert-butyl-1,8-dimethyl-5-[[(1R)-1-[3-(1,1-difluoro-2-hydroxy-ethyl)phenyl]ethyl]amino]imidazo [4,5-g]phthalazin-2-one], 6.17 nM; under `Cc1nnc(N[C@H](C)c2cccc(C(F)(F)C(C)(C)O)c2)c2cc3c(cc12)C(C)(C)C(=O)N3C(C)C` [Compound 81, 1-isopropyl-3,3,5-trimethyl-8-[[(1R)-1-[3-(1,1-difluoro-2-hydroxy-2-methyl-propyl)phenyl]ethyl]amino]pyrrol o[2,3-g]phthalazin-2-one], 8.51 nM.
Same read-out and setting: under `Cc1nnc(N[C@H](C)c2cccc(C(F)(F)CO)c2)c2cc3c(cc12)C(C)(C)C(=O)N3C(C)C` [Compound 82, 1-isopropyl-3,3,5-trimethyl-8-[[(1R)-1-[3-(1,1-difluoro-2-hydroxy-ethyl)phenyl]ethyl]amino]pyrrolo [2,3-g]phthalazin-2-one] stands 9.33 nM; under `Cc1nnc(N[C@H](C)c2cccc(C(F)(F)C(C)(C)O)c2)c2cc3c(cc12)n(C)c(=O)n3C1(C)CC1` [Compound 83, 1,8-dimethyl-3-(1-methylcyclopropyl)-5-[[(1R)-1-[3-(1,1-difluoro-2-hydroxy-2-methyl-propyl)phenyl]ethyl]amino]imidazo [4,5-g]phthalazin-2-one], 7.94 nM.
For the compound `Cc1nnc(N[C@H](C)c2cccc(C(F)(F)C(C)(C)O)c2)c2cc3c(cc12)C1(CCOCC1)C(=O)N3C` [Compound 84, 1,5-dimethyl-8-[[(1R)-1-[3-(1,1-difluoro-2-hydroxy-2-methyl-propyl)phenyl]ethyl]amino]spiro [pyrrolo[2,3-g]phthalazine-3,4′-tetrahydropyran]-2-one], the IC50 was 8.91 nM.
Still for that read-out and setting: the result for `Cc1c([C@@H](C)Nc2nnc(C)c3cc4c(cc23)n(C(C)C)c(=O)n4C)cccc1C(F)(F)CO` [Compound 85, 3-isopropyl-1,8-dimethyl-5-[[(1R)-1-[3-(1,1-difluoro-2-hydroxy-ethyl)-2-methyl-phenyl]ethyl]amino]imidazo[4,5-g]phthalazin-2-one] reads 8.32 nM; that for `COCC1(C)C(=O)N(C)c2cc3c(N[C@H](C)c4cccc(C(F)(F)C(C)(C)O)c4F)nnc(C)c3cc21` (stereo partly drawn) [Compound 86, D8-[[(1R)-1-[3-(1,1-difluoro-2-hydroxy-2-methyl-propyl)-2-fluoro-phenyl]ethyl]amino]-3-(methoxymethyl)-1,3,5-trimethyl-pyrrolo[3,2-g]phthalazin-2-one], 10.2 nM; that for `Cc1nnc(N[C@H](C)c2cccc(C(F)(F)C(C)(C)O)c2)c2cc3c(cc12)n(C)c(=O)n3C(C)C` [Compound 87, 3-isopropyl-1,8-dimethyl-5-[[(1R)-1-[3-(1,1-difluoro-2-hydroxy-2-methyl-propyl)phenyl]ethyl]amino]imidazo [4,5-g]phthalazin-2-one], 8.51 nM.
On the same count and under the same terms, under `Cc1nnc(N[C@H](C)c2cccc(C(F)(F)CO)c2)c2cc3c(cc12)C1(CCOCC1)C(=O)N3C` [Compound 88, 1,5-dimethyl-8-[[(1R)-1-[3-(1,1-difluoro-2-hydroxy-ethyl)phenyl]ethyl]amino]spiro [pyrrolo[2,3-g]phthalazine-3,4′-tetrahydropyran]-2-one] stands 7.76 nM; under `Cc1nnc(N[C@H](C)c2cccc(C(F)(F)CO)c2F)c2cc3c(cc12)C1(CCOCC1)C(=O)N3C` [Compound 89, 1,5-dimethyl-8-[[(1R)-1-[3-(1,1-difluoro-2-hydroxy-ethyl)-2-fluoro-phenyl]ethyl]amino]spiro[pyrrolo [2,3-g]phthalazine-3,4′-tetrahydropyran]-2-one], 8.13 nM; under `COC1(C)C(=O)N(C)c2cc3c(N[C@H](C)c4cccc(C(F)(F)C(C)(C)O)c4)nnc(C)c3cc21` (stereo partly drawn) [Compound 90, 3-methoxy-1,3,5-trimethyl-8-[[(1R)-1-[3-(1,1-difluoro-2-hydroxy-2-methyl-propyl)phenyl]ethyl]amino]pyrrolo [2,3-g]phthalazin-2-one], 10.7 nM.
Same read-out and setting: the result for `COC1(C)C(=O)N(C)c2cc3c(N[C@H](C)c4cccc(C(F)(F)CO)c4C)nnc(C)c3cc21` (stereo partly drawn) [Compound 92] reads 9.77 nM; that for `COC1(C)C(=O)N(C)c2cc3c(N[C@H](C)c4cccc(C(F)(F)CO)c4F)nnc(C)c3cc21` (stereo partly drawn) [Compound 93, 3-methoxy-1,3,5-trimethyl-8-[[(1R)-1-[3-(1,1-difluoro-2-hydroxy-ethyl)-2-fluoro-phenyl]ethyl]amino]pyrrolo[2,3-g]phthalazin-2-one], 7.41 nM.
Take `COCC1(C)C(=O)N(C)c2cc3c(N[C@H](C)c4cccc(C(F)(F)CO)c4F)nnc(C)c3cc21` (stereo partly drawn) [Compound 94, 8-[[(1R)-1-[3-(1,1-difluoro-2-hydroxy-ethyl)-2-fluoro-phenyl]ethyl]amino]-3-(methoxymethyl)-1,3,5-trimethyl-pyrrolo[3,2-g]phthalazin-2-one]: the IC50 was 8.91 nM.

Source of the values: US20250197407A1 (Jazz Pharmaceuticals Ireland Limited, priority 2022, published 2025).
